Key:
[1] = tested on: sheep of the Corriedale breed; test: Steroid-induced IOP elevation in sheep, intravitreal tPA (Examples 3, 4); type: in vivo
Protocol: Protocol 1. 8 sheep of the Corriedale breed were treated with prednisolone acetate three times a day in both eyes, leading to elevated IOP. After one week, the animals received intravitreal injections of human recombinant tPA (100, 200, 500 and 1000 μg, two animals each) dissolved in balanced salt solution (BSS) in one eye. IOP was monitored for 19 more days while the animals continued to receive treatment with prednisolone. Periodic slit lamp examination was also performed.
Protocol 2. In a second set of experiments, arginine was added to the BSS vehicle administered to the left eye to control for the relatively high concentration of the amino acid in the commercially available tPA lyophilisate. In these experiments all right eyes received 0.1 mg tPA, which concomitantly delivered 4.23 mg of arginine into the vitreous, and the left eye received this same amount of arginine, absent the tPA. On Day 1, prednisolone treatments were also begun simultaneously on both eyes.
Methods. In this experiment, the inventor sought to detect the effects of tPA treatment on prevention of steroid-induced IOP elevation. In 4 sheep tPA was injected in one eye (100 μg) and they were started on prednisolone acetate three times a day in both eyes. Animals were monitored for 11 days on continuous treatment.

C57BL/6J mice [2] = test: Outflow facility in TA and protein treated C57BL/6J mouse eyes (Example 13); type: in vivo; details: TA five days before intravitreal protein (2 μl, 5 μg/μl); two days after injection
Protocol: C57BL/6J mice were divided into two groups:
(§1) 1) Animals receiving bilateral steroid (TA) injection subconjunctivally five days prior to protein injection (FIG. 10b) and 2) Animals not receiving subconjunctival steroids (FIG. 10c).
(§2) 1) Animals that received unilateral intravitreal injection with 2 μl of tPA (5 μg/μl, Actilyse; Boehringer Ingelheim, Ingelheim am Rhein, Germany) while the contralateral eye received 2 μl of BSA (5 μg/μl; Gold Biotechnology, St Louis, Mo., USA), and 2) Animals that received unilateral intravitreal injections with 2 μl of non-enzymatically active tPA (NE-tPA/S478A-tPA) (5 μg/μl; Innovative Research, Novi, Mich., USA) while the contralateral eye received 2 μl of BSA. Animals were euthanized two days after intravitreal injection.
(§3) Outflow facility determination: Mouse eyes were enucleated immediately after euthanasia. Outflow facility was determined using a constant pressure method, as previously described. Pressure was raised in steps of 4 cmH2O, from 8 cmH2O (5.88 mmHg) to 32 cmH2O (23.54 mmHg) by increasing the height of a column of fluid of BSS. […] Flow was constantly measured via a microfluidic flow sensor (0.07-1.5 uL/min, MFS1; Elveflow, Paris, France). […] Any eyes that developed visible leaks during outflow facility determination, or that had pressure-flow correlations with R^2<0.9, were excluded from analysis but were used for RNA quantification.

Mmp-2, Mmp-9, Mmp-13 [3] = test: Mmp expression in TA and protein treated C57BL/6J eyes (Example 13); type: in vivo, mouse; details: vs BSA treated controls
PlatKO mice = test: Outflow facility in protein treated PlatKO mouse eyes (Example 14); type: in vivo; details: intravitreal protein
Protocol: (§4) PlatKO and Mmp-9KO mice were also not given steroids prior to protein injections (FIG. 10c). Within each cohort, animals were divided into two groups:
as §2
as §3, with “BSS. Steady state was initially achieved after 10 minutes.” for “BSS.”

Mmp-2, Mmp-9, Mmp-13 [4] = test: Mmp expression in protein treated PlatKO eyes (Example 14); type: in vivo, mouse; details: vs BSA treated eyes
Protocol: Tissue collection and confirmation of transgene expression: After outflow facility determination in adenovirus treated mice, mCherry expression in the TM was determined in all AdPLAT and AdPLATNE injected eyes. The eyes were dissected on ice to isolate a rim of tissue containing the TM by removing most of the iris and ciliary body. […] After observation, dissected rims were immediately immersed in RNA stabilizing agent (RNAlater, Invitrogen by ThermoFisher Scientific, Waltham, Mass., USA) and frozen. For TM tissue collection following protein treatment, all eyes were flash frozen in liquid nitrogen and subsequently dissected on ice to obtain the angle ring containing the TM tissues as previously described^43. Dissected TM tissues were immersed in RNAlater solution and then snap-frozen and stored at −80° C. until RNA extraction.
RNA isolation and quantitative real time PCR: Tissue collected was pooled (four eyes) and homogenized in TRIzol reagent (Life Technologies, Carlsbad, Calif., USA). RNA was isolated per the manufacturer's instructions and resuspended in nuclease-free water. RNA concentration was determined with a Nanodrop ND-1000 Spectrophotometer (ThermoFisher Scientific, Waltham, Mass., USA). cDNA was synthesized by using High-Capacity cDNA Reverse Transcription Kit (Applied Biosystems, Waltham, Mass., USA) according to manufacturer's protocol. Quantitative real-time PCR (qRT-PCR) was performed by using Green-2-Go qPCR Mastermix-ROX (BioBasic, Amherst, N.Y., USA) on a QuantStudio 6 Flex thermal cycler (Applied Biosystems, Carlsbad, Calif., USA).
mRNA expression of sheep PLAT and mouse Mmp-2, Mmp-9, and Mmp-13 in angle ring tissues was determined. Primers were designed by using Primer-BLAST (https://www.ncbi.nlm.nih.gov/tools/primer-blast/index.cgi?LINK_LOC=BlastHome; in the public domain) and their specificity was confirmed by the presence of a single band of the expected size on agarose gel electrophoresis. […] The relative fold change was calculated by using the ΔΔCt method. […]

C57BL/6J mice [5] = test: Outflow facility in protein treated C57BL/6J eyes not exposed to steroids (Example 15); type: in vivo, mouse; details: C57BL/6J not exposed to steroids, intravitreal protein
Protocol: as §1, §2
as §3, with “BSS. Steady state was initially achieved after 10 minutes.” for “BSS.”

Mmp-9KO mice = test: Outflow facility in protein treated Mmp-9KO mouse eyes (Example 16); type: in vivo; details: intravitreal protein, p>0.05
Protocol: as §4, §2
as §3, with “BSS. Steady state was initially achieved after 10 minutes.” for “BSS.”

In the case of tissue plasminogen activator [tPA], the “prevention of steroid-induced IOP elevation” value ([1]; 100 μg in one eye, concurrent with prednisolone, 11 days) is reported as “prevented IOP elevation”, the ocular observations ([1]; intravitreal tPA, prednisolone-treated sheep, some eyes) is reported as “Transient injection and corneal clouding” and the “IOP after tPA” value ([1]; within 24 h, all intravitreal doses tested (100-1000 μg), prednisolone continued) is reported as 14.1(±1.1) mmHg. The “outflow facility, mean±standard deviation” value (C57BL/6J mice [2]) was 105.3±35.8×10^−5 μl/min/mmHg, the “Mmp-2, Mmp-9 and Mmp-13 expression” value (Mmp-2, Mmp-9, Mmp-13 [3]) was “significant upregulation” and the “increase in outflow facility compared to BSA treated eyes” value (PlatKO mice) was 46%. The “outflow facility, mean±standard deviation” value (PlatKO mice; no steroid, two days) was 89±27×10^−5 μl/min/mmHg, the Mmp-2 expression (Mmp-2, Mmp-9, Mmp-13 [4]) was “not significantly different” and the Mmp-9 expression (Mmp-2, Mmp-9, Mmp-13 [4]) was “significant upregulation”. The Mmp-13 expression (Mmp-2, Mmp-9, Mmp-13 [4]) was “significant upregulation”, the “outflow facility, mean±standard deviation” value (C57BL/6J mice [5]) was 102.7±19.5×10^−5 μl/min/mmHg and the “effect on outflow facility” value (Mmp-9KO mice) was “did not increase”.
